Measured values from publication PMC6973281 (2019).

Key:
[1] = system: 22AG (DNA, G4) AGGGTTAGGGTTAGGGTTAGGG; experiment: spectrophotometric titration; conditions: K+ 73 mM; K-phosphate buffer pH 7.0, 5 % v/v DMSO, 20 °C; 5 μM compound; isotherm could not be fitted
[2] = system: 22AG (DNA, G4) AGGGTTAGGGTTAGGGTTAGGG; experiment: spectrophotometric titration, independent-site fit; conditions: K+ 73 mM; K-phosphate buffer pH 7.0, 5 % v/v DMSO, 20 °C; 5 μM compound; unit not given

**Q.** CCOC(=O)c1csc(/N=N/c2nc(C(=O)OCC)c(NCCCN(C)C)s2)n1 was tested. Which binding [1] did it give?
**A.** weak

**Q.** Which “K 22AG” value [2] does the source give for CCOC(=O)c1nc(/N=N/c2nc(C(=O)OCC)c(NCCCN(C)C)s2)sc1NCCCN(C)C here?
**A.** 2.4×10^4
